Here are results for 21 molecules from BindingDB's records for doi:10.1016/j.bmc.2015.04.057 (Beni-Suef University, 2015).

The experiment in a line: Antiinflammatory activity in mouse RAW264.7 cells assessed as inhibition of LPS-induced iNOS activity incubated for 30 mins prior to LPS challenge measured after 24 hrs by Griess assay. (The Griess reaction detects nitrite, a stable product of nitric oxide.)
As usually defined, the IC50 is the midpoint of a concentration-inhibition curve. `O=c1sc2ccccc2n1CCCN1CCN(CCCn2c(=O)sc3ccccc32)CC1`: the half-maximal inhibitory concentration (IC50) came to 4.62 µM.

Turning to `O=c1oc2ccccc2n1CCCCCN1CCN(CCCCCn2c(=O)oc3ccccc32)CC1`, the IC50 was determined as 4.43 µM.

With `O=c1sc2ccccc2n1CCCCCN1CCN(CCCCCn2c(=O)sc3ccccc32)CC1`, the concentration for half-maximal inhibition (IC50) was 0.41 µM.

Consider `O=c1oc2ccccc2n1CCCCCCN1CCN(CCCCCCn2c(=O)oc3ccccc32)CC1`, for which the concentration for half-maximal inhibition (IC50) came to 4.22 µM.

`O=c1sc2ccccc2n1CCCCCCN1CCN(CCCCCCn2c(=O)sc3ccccc32)CC1`: the IC50 amounted to 0.28 µM.

`O=c1oc2ccccc2n1CCCCCN1CCN(CCn2c(=O)oc3ccccc32)CC1`: the IC50 was determined as 4.98 µM.

As to `O=c1sc2ccccc2n1CCCCCN1CCN(CCn2c(=O)sc3ccccc32)CC1`, the IC50 turned out to be 4.51 µM.

With `O=c1oc2ccccc2n1CCCCCCN1CCN(CCn2c(=O)oc3ccccc32)CC1`, the IC50 worked out at 4.66 µM.

Take `O=c1sc2ccccc2n1CCCCCCN1CCN(CCn2c(=O)sc3ccccc32)CC1`: the half-maximal inhibitory concentration (IC50) was 3.43 µM.

Turning to `O=c1sc2ccccc2n1CCCCN1CCN(CCCn2c(=O)sc3ccccc32)CC1`, the IC50 was 4.51 µM.

Turning to `O=c1oc2ccccc2n1CCCCCN1CCN(CCCn2c(=O)oc3ccccc32)CC1`, the half-inhibitory concentration (IC50) was 4.86 µM.

With `O=c1sc2ccccc2n1CCCCCN1CCN(CCCn2c(=O)sc3ccccc32)CC1`, the IC50 was determined as 2.55 µM.

With `O=c1oc2ccccc2n1CCCCCCN1CCN(CCCn2c(=O)oc3ccccc32)CC1`, the IC50 was determined as 4.5 µM.

On to `O=c1sc2ccccc2n1CCCCCCN1CCN(CCCn2c(=O)sc3ccccc32)CC1`, for which the IC50 is 2.57 µM.

As to `O=c1oc2ccccc2n1CCCCCN1CCN(CCCCn2c(=O)oc3ccccc32)CC1`, the half-inhibitory concentration (IC50) was determined as 4.54 µM.

Consider `O=c1oc2ccccc2n1CCCCCCN1CCN(CCCCn2c(=O)oc3ccccc32)CC1`, for which the IC50 was 1.77 µM.

With `O=c1sc2ccccc2n1CCCCCCN1CCN(CCCCn2c(=O)sc3ccccc32)CC1`, the IC50 stood at 0.51 µM.

Take `O=c1oc2ccccc2n1CCCCCCN1CCN(CCCCCn2c(=O)oc3ccccc32)CC1`: the IC50 was 2.9 µM.

As to `O=c1sc2ccccc2n1CCCCCCN1CCN(CCCCCn2c(=O)sc3ccccc32)CC1`, the IC50 stood at 0.29 µM.

Take `c1ccc2oc(SCCCCN3CCN(CCCCSc4nc5ccccc5o4)CC3)nc2c1`: the concentration for half-maximal inhibition (IC50) stood at 1.12 µM.

As for `c1ccc2sc(SCCCCN3CCN(CCCCSc4nc5ccccc5s4)CC3)nc2c1`, the IC50 came to 0.41 µM.
